Source: patent publication US20240083872A1, “CYCLIC AMINE DERIVATIVES HAVING SEROTONIN RECEPTOR BINDING ACTIVITY” (Shionogi & Co., Ltd., priority 2020, published 2024)
pIC50, pKi: −log10 of the molar value. Like-named read-outs stand apart in the source and are kept apart here.

How the values were obtained:
[1] = molecular target: human recombinant 5-HT2A receptor (Homo sapiens (Human), UniProt P28223); assay: 5-HT2A receptor binding inhibition test ([3H]-Ketanserin); conditions: Jump-In HEK cell membrane
human recombinant 5-HT2A receptor, sequence (P28223 whole entry): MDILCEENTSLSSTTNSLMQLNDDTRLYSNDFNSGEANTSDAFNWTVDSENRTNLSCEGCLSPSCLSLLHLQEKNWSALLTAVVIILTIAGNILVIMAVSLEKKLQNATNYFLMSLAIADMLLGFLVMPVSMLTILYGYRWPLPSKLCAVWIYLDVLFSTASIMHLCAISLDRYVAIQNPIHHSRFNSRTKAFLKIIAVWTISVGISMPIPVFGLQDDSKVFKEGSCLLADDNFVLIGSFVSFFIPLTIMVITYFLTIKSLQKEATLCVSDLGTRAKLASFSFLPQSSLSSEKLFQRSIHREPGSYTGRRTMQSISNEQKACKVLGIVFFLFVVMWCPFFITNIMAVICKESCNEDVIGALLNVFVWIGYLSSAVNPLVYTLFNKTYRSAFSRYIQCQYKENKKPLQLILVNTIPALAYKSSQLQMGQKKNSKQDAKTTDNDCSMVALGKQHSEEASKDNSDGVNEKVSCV
Method in brief: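 HEK cell membranes expressing human recombinant receptor were incubated with [3H]-ketanserin near its Kd in Tris-HCl 50 mmol/L pH 7.4 buffer (0.1% BSA) for 1.5 h at 25° C, then filtered on GF/B. Non-specific binding was defined with […] serotonin; Ki came from dose-response curves.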

[2] = molecular target: human recombinant 5-HT2C receptor (Homo sapiens (Human), UniProt P28335); assay: 5-HT2C receptor binding inhibition test ([3H]-Mesulergine); conditions: Jump-In HEK cell membrane, [3H]-Mesulergine
human recombinant 5-HT2C receptor, sequence (P28335 33-458): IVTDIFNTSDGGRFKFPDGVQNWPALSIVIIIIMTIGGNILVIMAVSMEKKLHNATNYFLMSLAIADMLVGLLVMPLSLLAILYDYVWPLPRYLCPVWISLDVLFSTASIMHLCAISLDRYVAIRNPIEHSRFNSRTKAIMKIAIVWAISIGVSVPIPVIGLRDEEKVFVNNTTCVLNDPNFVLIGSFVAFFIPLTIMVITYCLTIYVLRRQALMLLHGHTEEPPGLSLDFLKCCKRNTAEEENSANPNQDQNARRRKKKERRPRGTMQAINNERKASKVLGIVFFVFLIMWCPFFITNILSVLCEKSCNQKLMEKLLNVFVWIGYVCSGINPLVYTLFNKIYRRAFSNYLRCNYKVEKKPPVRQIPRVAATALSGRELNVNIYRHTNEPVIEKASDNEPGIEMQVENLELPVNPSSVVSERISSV

[3] = Metabolic stability test; format: in vitro ADME; conditions: human hepatic microsomes, 0.5 μmol/L, 30 minutes, 37° C., NADPH (oxidative reaction)
Description: Test Example 6-2: Metabolic Stability Test
Using commercially available pooled human hepatic microsomes, a compound according to the present invention was reacted for a constant time, and a remaining rate was calculated by comparing a reacted sample and an unreacted sample, thereby, a degree of metabolism of the compound according to the present invention in liver was evaluated.
A reaction was performed (oxidative reaction) at 37° C. for 0 minutes or 30 minutes in the presence of 1 mmol/L NADPH in 0.2 mL of a buffer (50 mmol/L Tris-HCl pH 7.4, 150 mmol/L potassium chloride, 10 mmol/L magnesium chloride) containing 0.5 mg protein/mL of human hepatic microsomes. After the reaction, 70 μL of the reaction solution was added to 140 μL of a solution of methanol/acetonitrile=1/1 (v/v), mixed and centrifuged at 3000 rpm for 15 minutes. The compound according to the present invention in the supernatant was quantified by LC/MS/MS or Solid Phase Extraction (SPE)/MS, and a remaining rate of the compound according to the present invention after the reaction was calculated, letting a compound amount at 0 minute reaction time be 100%.

[4] = molecular target: human ether-a-go-go related gene (hERG) channel (Homo sapiens (Human), UniProt Q12809); assay: hERG test (FluxOR potassium channel assay, FLIPR); format: cell-based; conditions: CHO cells expressing hERG channel, thallium flux fluorescence
human ether-a-go-go related gene (hERG) channel, sequence (Q12809 whole entry): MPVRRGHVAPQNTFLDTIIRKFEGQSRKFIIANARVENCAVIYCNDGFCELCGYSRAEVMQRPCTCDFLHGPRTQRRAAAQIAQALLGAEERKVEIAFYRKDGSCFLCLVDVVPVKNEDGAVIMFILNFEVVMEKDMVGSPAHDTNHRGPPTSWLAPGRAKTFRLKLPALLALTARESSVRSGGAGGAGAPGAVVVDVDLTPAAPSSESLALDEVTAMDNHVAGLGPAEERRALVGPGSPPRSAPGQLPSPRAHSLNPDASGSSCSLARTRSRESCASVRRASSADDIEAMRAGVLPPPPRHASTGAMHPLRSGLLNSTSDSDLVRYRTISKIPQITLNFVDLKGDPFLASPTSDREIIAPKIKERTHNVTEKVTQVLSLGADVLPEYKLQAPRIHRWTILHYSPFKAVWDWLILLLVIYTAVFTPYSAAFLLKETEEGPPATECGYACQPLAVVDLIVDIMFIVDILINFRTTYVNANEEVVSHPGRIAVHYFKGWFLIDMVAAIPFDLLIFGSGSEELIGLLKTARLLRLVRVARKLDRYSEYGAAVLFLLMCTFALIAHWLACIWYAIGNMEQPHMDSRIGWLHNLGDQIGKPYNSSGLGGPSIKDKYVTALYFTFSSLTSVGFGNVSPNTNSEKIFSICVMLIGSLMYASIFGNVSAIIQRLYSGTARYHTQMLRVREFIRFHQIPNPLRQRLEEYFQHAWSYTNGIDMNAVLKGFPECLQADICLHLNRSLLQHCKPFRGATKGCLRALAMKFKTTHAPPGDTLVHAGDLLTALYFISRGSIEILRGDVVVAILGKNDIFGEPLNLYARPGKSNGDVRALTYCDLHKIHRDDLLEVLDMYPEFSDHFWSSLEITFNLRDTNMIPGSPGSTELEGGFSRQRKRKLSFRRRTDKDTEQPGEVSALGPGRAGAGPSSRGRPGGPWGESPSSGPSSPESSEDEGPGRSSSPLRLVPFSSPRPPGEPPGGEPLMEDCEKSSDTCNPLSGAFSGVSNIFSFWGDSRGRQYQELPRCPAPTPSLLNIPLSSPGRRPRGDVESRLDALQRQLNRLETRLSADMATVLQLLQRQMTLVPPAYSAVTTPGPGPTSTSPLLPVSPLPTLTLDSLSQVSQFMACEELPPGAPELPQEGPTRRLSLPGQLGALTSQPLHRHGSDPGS
Description: Test Example 3-2: hERG Test
For the purpose of evaluating risk of an electrocardiogram QT interval prolongation of the compound of the present invention, effects of the compound were studied by evaluating the activity of potassium channel using CHO cells expressing human ether-a-go-go related gene (hERG) channel.
Evaluation was performed using a FluxORII Green Potassium IonCgannel Assay kit (Invitrogen: Molecular Probes).
Cells were seeded in a 384-assay plate (8000 cells/well/40 μL) and incubated (37° C., 5% CO2) overnight. After replacing the medium with a Wash buffer (1×HBSS, 20 mM HEPES) with a microplate washer, a fluorescent indicator was added to the medium and allowed to incubate (37° C., 5% CO2) for 1 hour for incorporation of the fluorescent indicator into cells.
A cell plate was placed on a cell-based kinetic assay system FLIPR (Molecular Devices, LLC.), and the compound was added to the cells so as to have a desired concentration and reacted for 10 minutes. When a mixed solution of potassium and thallium as a stimulator was added thereto, the potassium channel was opened, and thallium that flowed into the cells bound to the fluorescent indicator, so that the intracellular fluorescence signal increased, and the potassium channel current was detected as a fluorescence signal. […] Then, the inhibition rate was calculated from the signal intensity at each concentration. IC50 was calculated from the inhibition rate at each concentration.

[5] = read-out: human serotonin 5-HT2A receptor binding activity, Ki value
[6] = read-out: human serotonin 5-HT2C receptor binding inhibitory activity, Ki value

pKi ([1]; read-out: h-5-HT2A Ki) | pKi ([2]; read-out: h-5-HT2C Ki) | remaining rate of the compound [3] | pKi [1, 5] | pKi [2, 6] | SMILES | pIC50 [4]
> 8.00 | > 8.00 | 99.6% |  |  | CC(C)COc1ccc(CN(Cc2ccc(F)cn2)C(=O)NC2CCN(C)CC2)cc1 [Compound I-016] | 
 |  | 85.0% | 8.67 | 8.51 | CC(C)COc1ccc(CN(Cc2ccn(C)n2)C(=O)NC2CCN(C)CC2)cc1 [Compound I-043] | 
> 8.00 | > 8.00 | 85.3% |  |  | Cc1nc(CN(Cc2ccc(OCC(C)C)cc2)C(=O)NC2CCN(C)CC2)co1 [Compound I-077] | 
7.00 to 8.00 | 7.00 to 8.00 |  |  |  | CC(C)COc1ccc(CN(Cc2ccn(C)n2)C(=O)OC2CCN(C)CC2)cc1 [Compound I-082] | < 4.28
7.00 to 8.00 |  |  |  |  | Cc1cc(CN(Cc2ccc(OCC(C)C)cc2)C(=O)OC2CCN(C)CC2)nn1C [Compound I-083] | < 4.28
 |  |  | 8.58 | 8.24 | CC(C)COc1ccc(CN(Cc2cnn(C)n2)C(=O)OC2CCN(C)CC2)cc1 [Compound I-084] | < 4.28
 |  | 75.5% | 9.30 | 9.62 | CCCCOc1ccc(CN(Cc2coc(C)n2)C(=O)NC2CCN(C)CC2)cc1 [Compound I-086] | 

Second part, the compound before the results:

SMILES | pKi ([1]; read-out: h-5-HT2A Ki) | pKi ([2]; read-out: h-5-HT2C Ki) | remaining rate of the compound [3] | pKi [1, 5] | pKi [2, 6] | pIC50 [4]
CC(C)COc1ccc(CN(Cc2ccn(C)n2)C(=O)N[C@H]2CCNCC23CC3)cc1 [Compound I-028] | > 8.00 | > 8.00 | 90.2% |  |  | 
Cc1nc(CN(Cc2ccc(OCC(C)C)cc2)C(=O)OC2CCN(C)CC2)co1 [Compound I-081] | > 8.00 | > 8.00 |  |  |  | < 4.28
Cc1nc(CN(Cc2ccc(OCC(F)(F)C(F)(F)F)cc2)C(=O)NC2CCN(C)CC2)co1 [Compound I-088] | > 8.00 | > 8.00 | 80.0% |  |  | 
CCCCOc1ccc(CN(Cc2coc(C)n2)C(=O)CC2CCN(C)CC2)cc1 [Compound I-099] | > 8.00 | > 8.00 |  |  |  | 4.33
CCCCOc1ccc(CN(Cc2cnn(C)n2)C(=O)NC2CCN(C)CC2)c(F)c1 [Compound I-102] |  |  | 97.3% | 9.19 | 9.39 | 
